13 molecules from patent publication US20250223306A1, “TEAD INHIBITORS AND METHODS OF USE” (Sporos BioDiscovery, Inc., priority 2022, published 2025) can be followed below.

In assay [1] the test system is LOU-NH91 cells. The assay can be described thus: LOU-NH91 proliferation and cell viability assay (CTG). The class given is cell-based. As to conditions: LOU-NH91 cell line, 216 hours. The protocol:
LOU-NH91 cells were trypsinised, counted and plated at the specified cell density in 200 μl of growth media in 96 well flat bottom tissue culture treated plates. The plated cells were incubated overnight at 37° C., 5% CO2 before being treated with compounds in triplicate for each assay point. 50 μl of the serially diluted compound was added to each well giving a final DMSO concentration of 0.5% per well and a total volume of 250 μl per well. The treated cells were incubated for 216 hours (9 days) at 37° C., 5% CO2. Following compound treatment, the remaining viable cells were detected using the Promega CellTiter-Glo 2.0 assay as follows: 150 μl of media was removed from each of the wells to be assayed and 100 μl of room temperature CellTiter-Glo 2.0 reagent was added. The plate was placed on an orbital shaker at 500 rpm at room temperature for 2 minutes, and then incubated without shaking for a further 10 minutes at room temperature. 150 μl of cell lysate was removed from each well and dispensed into a single well of a white opaque 96 well plate. Luminescence at 545 nm was read using a BMG CLARIOstar plate reader. The luminescent signal was directly proportional to number of viable cells, the percent of viable cells relative to the DMSO control was then calculated for each assay point. Percent viability relative to DMSO control was plotted against compound concentration and a curve fitted with non-linear regression in GraphPad Prism software. EC50 and IC50 values were calculated using GraphPad Prism software as follows: For EC50 values a non-constrained four-parameter logistic curve fit was used (Sigmoidal, 4PL, X is concentration). For Absolute IC50 values the baseline was constrained to Y=0 (Absolute IC50, X is concentration). Area Under the Curve (AUC): Prism computes area-under-the-curve by the trapezoidal method. The analysis sees a fitted curve as simply a series of connected XY points. Prism simply computes the area under the “curve” defined by connecting the points by straight lines. The units of the AUC are the units of the Y axis times units of the X axis.

Assay [2] concerns NCI-H226 cells. The assay can be described thus: Proliferation and cell viability, CellTiter-Glo 2.0 (CTG) assay. It is filed as cell-based. Conditions: for IC50: H226-responder cell line, 144 hrs; for EC50: NCI-H226, H226-responder cell line (Table 5). On the procedure:
Cell proliferation of a TEAD dependent NF2-null mesothelioma cell line, NCI-H226, and a TEAD-non-dependent mesothelioma cell line, NCI-H28 was assayed using two different protocols: • a) CellTiter-Glo 2.0 (Promega #G9243). The effect of the TEAD inhibitors disclosed herein on cell proliferation was determined in TEAD1-genetically dependent cell line NCI-H226 (responder cell line) and TEAD-independent cell lines (NCI-H23, HEK293T), as non-responder, negative control. Cells were seeded in 96-well plates (Thermo Scientific #167008) in growth media (RPMI-1640, Gibco #61870-010) for NCI-H226 and NCI-H23 or DMEM (Gibco #31966-021, HEK293T) with 10% Heat Inactivated Fetal Bovine Serum (Gibco 10500-064) at 800 (NCI-H226 and HEK-293T) or 2000 (NCI-H23) cells per well at 37° C., 5% CO2, humidified incubator; 24 hours later, fresh growth media containing test compound or DMSO vehicle was added and incubated with the cells for 144 hrs. TEAD inhibitor stocks were made at a 1000× fold excess in DMSO, and a dose response test compound dose range of 10,000 to 0.1 nM was used. Each treatment was carried out in triplicate. After 144 hrs of treatment, relative cell viability numbers were determined using the CellTiter-Glo 2.0 assay following the manufacturer's instructions. Test plates and CellTiter-Glo 2.0 reagent were allowed to equilibrate to room temperature. CellTiter-Glo 2.0 reagent was added at 1:1 reagent to media ratio to the 96-well cell plates, plates were placed on a plate shaker for 2 minutes and then incubated at room temperature for a further 10 minutes to allow complete cell lysis to occur. The mix was then transferred to white, 96-well luminometer assay plates (Greiner Bio One #655075). Luminescence was quantified using a CLARIOStar Plus multi-mode plate reader (BMG Labtech) in luminescence detection mode with the recommended settings (ultra-Glo pre-set: emission 545-50 nm with autofocus and enhanced dynamic range on). Relative cell density was expressed as a function of inhibitor concentration, with respect to DMSO-only control wells. Data where plotted using GraphPad Prism and IC50 values for the biological effect were calculated using the EC50 non-linear fit function using a sigmoidal, 4-parameter logistic, least squares fit with no constraints. • b) Cell Titer One (Promega, #G3582). The effect of the TEAD inhibitors disclosed herein on cell proliferation was also determined using the Promega Substrate Cell Titer Aqueous One Solution Reagent. The TEAD inhibitors were evaluated for the effects on cell proliferation responder (H226) and non-responder negative control cancer cell lines (CAMA1, H28), as well as non-transformed normal human cells (HUVEC, NHDF). Dissociated cells were resuspend in media (depending on cell line, either in DMEM, RPMI, or EMEM all with 10% FBS, with gentamicin as an antibiotic). Cells were seeded at 100 μL/well at 750 cells per well in 96-well plates and allowed to settle and attach. After an incubation of 24 hrs (37° C., 5% CO2, humidified incubator), 100 μL of test compound-containing media was added. A dilution series of 2000× concentrated stock of test compounds was prepared in DMSO, for final concentrations from 0.1 to 10,000 nM. After addition of test compound-containing media, cells were incubated for 6 days at 37° C., 5% CO2, humidified incubators). To measure cell density, 20 μL of Promega Substrate Cell Titer 96 Aqueous One Solution Reagent (Promega, #G3582) to each well was added according to the manufacturer's instructions. Plates were incubated at 37° C. for usually 3-8 hrs, to reach in the control cells (without compound) an OD of 1.5 at 490 nm. The OD was measured using Vmax [Molecular Devices] spectrophotometer plate reader. Media only-wells were used as background controls and cell densities normalized to DMSO vehicle control. ECs were taken as the concentration achieving 50% of maximal growth inhibition.
Background: In ATP-based viability assays light output follows the ATP content of the culture.

Each structure is given as a SMILES string.

For the molecule `C[C@H](NC(=O)c1cnc2c(C3=CC[C@@H](C(F)(F)F)CC3)cccc2c1)c1ncco1` (single isomer, unassigned) [Compound 19, N-(1-(oxazol-2-yl)ethyl)-8-(4-(trifluoromethyl)cyclohex-1-en-1-yl)quinoline-3-carboxamide], the EC50 in assay [1] and in assay [2] (Homo sapiens) was below 0.2 µM each time. Also, the half-inhibitory concentration (IC50) (as a rule, the concentration needed to halve the response being measured) in assay [2] (Homo sapiens, NCI-H226, 144 h) is below 0.2 µM.
`C[C@H](NC(=O)c1cnc2c(C3=CC[C@@H](C(F)(F)F)CC3)cccc2c1)c1ncco1` (single isomer, unassigned) [Compound 20, N-(1-(oxazol-2-yl)ethyl)-8-(4-(trifluoromethyl)cyclohex-1-en-1-yl)quinoline-3-carboxamide]: the EC50 (commonly the concentration giving half of the maximal effect) in assay [1] is below 0.2 µM. The molecule further came in with a half-maximal inhibitory concentration (IC50) in assay [2] below 0.2 µM.
In the case of `FC(F)(F)c1ccc(CN2CCC(C3CC(Br)=NO3)CC2)cc1` (stereo not drawn) [Compound 1-2, reference compound], the 50% effective concentration (EC50) in assay [1] and in assay [2] (Homo sapiens) was below 0.2 µM in each case.
In the case of `C=CC(=O)Nc1ccc(C)c(Oc2ccc(Cl)cc2)c1` [Compound 1-3, reference compound], the concentration giving a half-maximal response (EC50) in assay [1] and in assay [2] (Homo sapiens) was below 0.2 µM each time.
The molecule `C[C@H](NC(=O)c1cnc2c(C3=CCC(C(F)(F)F)CC3)cccc2c1)c1ccccn1` (stereo partly drawn) [Compound 2, N—((S)-1-(pyridin-2-yl)ethyl)-8-(4-(trifluoromethyl)cyclohex-1-en-1-yl)quinoline-3-carboxamide] returned an IC50 in assay [2] (Homo sapiens, NCI-H226, 144 h) below 0.2 µM.
Regarding `C[C@H](CO)NC(=O)c1cnc2c(C3=CCC(C(F)(F)F)CC3)cccc2c1` (stereo partly drawn) [Compound 7, N—((R)-1-hydroxypropan-2-yl)-8-(4-(trifluoromethyl)cyclohex-1-en-1-yl)quinoline-3-carboxamide], the EC50 in assay [1] and in assay [2] (Homo sapiens) was below 0.2 µM in each case. Besides, in assay [2] (Homo sapiens, NCI-H226, 144 h), the IC50 was below 0.2 µM.
For the molecule `O=C(NCc1ncco1)c1cnc2c(C3=CCC(C(F)(F)F)CC3)cccc2c1` (stereo not drawn) [Compound 11, N-(oxazol-2-ylmethyl)-8-(4-(trifluoromethyl)cyclohex-1-en-1-yl)quinoline-3-carboxamide], the IC50 in assay [2] (Homo sapiens, NCI-H226, 144 h) is below 0.2 µM. The molecule further registered an EC50 in assay [2] (Homo sapiens) below 0.2 µM.
As for `O=C(NCc1ccn[nH]1)c1cnc2c(C3=CCC(C(F)(F)F)CC3)cccc2c1` (stereo not drawn) [Compound 47, N-((1H-pyrazol-5-yl)methyl)-8-(4-(trifluoromethyl)cyclohex-1-en-1-yl)quinoline-3-carboxamide], the half-maximal effective concentration (EC50) in assay [1] and in assay [2] (Homo sapiens) was below 0.2 µM in each case.
As for `COC[C@H](CO)NC(=O)c1cnc2c(C3=CCC(C(F)(F)F)CC3)cccc2c1` (stereo partly drawn) [Compound 62, N—((S)-1-hydroxy-3-methoxypropan-2-yl)-8-(4-(trifluoromethyl)cyclohex-1-en-1-yl)quinoline-3-carboxamide], the EC50 in assay [1] and in assay [2] (Homo sapiens) was below 0.2 µM in each case.
With `COc1cc(C2=CCC(C(F)(F)F)CC2)c2ncc(C(=O)N[C@H](C)c3ncco3)cc2c1` (stereo partly drawn) [Compound 109, 6-methoxy-N—((R)-1-(oxazol-2-yl)ethyl)-8-(4-(trifluoromethyl)cyclohex-1-en-1-yl)quinoline-3-carboxamide], the EC50 in assay [1] and in assay [2] (Homo sapiens) was below 0.2 µM in each case.
In assay [2] (Homo sapiens), `COc1cc(C2=CCC(C(F)(F)F)CC2)c2ncc(C(=O)N[C@H](C)CO)cc2c1` (stereo partly drawn) [Compound 110, N—((R)-1-hydroxypropan-2-yl)-6-methoxy-8-(4-(trifluoromethyl)cyclohex-1-en-1-yl)quinoline-3-carboxamide] came in with a concentration for a half-maximal effect (EC50) below 0.2 µM.
For `C[C@H](CO)NC(=O)c1cnc2c(C3=CCC4(CC3)CC(F)(F)C4)cccc2c1` [Compound 165, (R)-8-(2,2-difluorospiro[3.5]non-6-en-7-yl)-N-(1-hydroxypropan-2-yl)quinoline-3-carboxamide], the concentration giving a half-maximal response (EC50) in assay [2] (Homo sapiens) was below 0.2 µM.
For `C[C@@H](NC(=O)c1cnc2c(C3=CCC4(CC3)CC4)cccc2c1)c1ncco1` [Compound 166, (R)—N-(1-(oxazol-2-yl)ethyl)-8-(spiro[2.5]oct-5-en-6-yl)quinoline-3-carboxamide], the EC50 in assay [2] (Homo sapiens) is below 0.2 µM.
